Assays:
Assay in all cases: emission titration (737 nm), Bard equation
Details in all cases: K+ (50 mM potassium phosphate), pH 7, enantiomer by table order, per base
[1] = test system: d(GCGCGCGCGC)2; (GC)5 (DNA, duplex) GCGCGCGCGC
[2] = test system: d(CGCGAATTCGCG)2 (DNA, duplex) CGCGAATTCGCG
[3] = test system: d(CGCAAATTTGCG)2 (DNA, duplex) CGCAAATTTGCG
[4] = test system: d(ATTATTATTATATTA)/d(TAATATAATAATAAT) (AT DNA) (DNA, duplex) ATTATTATTATATTA/TAATATAATAATAAT

KDNA ([1]; site size n 3.1 ± 0.1 base pairs): 770000 M⁻¹
KDNA ([1]; site size n 4.8 ± 0.2 base pairs): 610000 M⁻¹
KDNA ([2]; site size n 1.6 ± 0.1 base pairs): 1.4e+06 M⁻¹
KDNA ([2]; site size n 1.7 ± 0.1 base pairs): 510000 M⁻¹
KDNA ([3]; site size n 1.92 ± 0.04 base pairs): 1.7e+06 M⁻¹
KDNA ([3]; site size n 2.10 ± 0.09 base pairs): 480000 M⁻¹
KDNA ([4]; site size n 2.25 ± 0.05 base pairs): 4e+06 M⁻¹
KDNA ([4]; site size n 2.28 ± 0.05 base pairs): 3e+06 M⁻¹
SMILES: Cc1cnc2c(ccc3c(C)c(C)cnc32)c1C.Cc1cnc2c(ccc3c(C)c(C)cnc32)c1C.[Cr+3].c1ccc2nc3c4cccnc4c4ncccc4c3nc2c1

Source: paper PMC8447253 (2021)
